Patent US9738634B2, “Heterocyclic amide compound and herbicide” (SYNGENTA PARTICIPATIONS AG, priority 2013, dated 2017)

Assays:
Format in all cases: in vivo
directly sown rice = assay: Test Example 3: soil treatment, effect on crop; b: directly sown rice; settings: soil treatment, treatment dosage 320 g/ha
Procedure, shortened: (§1)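 Crop and weed responses were judged three weeks after a uniform surface spray of the water-diluted emulsion at the given g/ha rate. Seeds sat beneath about 1.5 cm of sterilized diluvial soil, and boxes stood in a greenhouse at 25 to 30° C.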

bulrush [1] = assay: Test Example 1: weedkilling efficacy, preemergent weed treatment in the submerged state; B: bulrush; settings: treatment dosage 320 g/ha
Procedure, shortened: (§2)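 Visual scores against set criteria were taken 3 weeks after treatment. Compounds, as diluted emulsions at specified g/ha, went onto the water surface of 4 cm-flooded alluvial soil pots on the day weeds were sown and 2.5-leaf rice was transplanted; greenhouse held 25–30 °C.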

soybean = assay: Test Example 3: soil treatment, effect on crop; d: soybean; settings: soil treatment, treatment dosage 320 g/ha
Procedure, shortened: as §1

oval-leafed pondweed [2] = assay: Test Example 1: weedkilling efficacy, preemergent weed treatment in the submerged state; C: oval-leafed pondweed; settings: treatment dosage 320 g/ha
Procedure, shortened: as §2

bulrush [3] = assay: Test Example 2: weedkilling efficacy, growth period weed treatment in the submerged state; B: bulrush; settings: treatment dosage 320 g/ha
Procedure, shortened: (§3)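 Barnyard grass, bulrush and oval-leafed pondweed sown in alluvial soil under 4 cm flooding, greenhouse 25 to 30° C. At 1-2 leaf stage, water-diluted emulsion applied to the water surface at stated g/ha dosages; effects scored 3 weeks later.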

barnyard grass [4] = assay: Test Example 3: weedkilling efficacy through soil treatment; F: barnyard grass; settings: soil treatment, treatment dosage 320 g/ha
Procedure, shortened: as §1

green foxtail = assay: Test Example 3: weedkilling efficacy through soil treatment; E: green foxtail; settings: soil treatment, treatment dosage 320 g/ha
Procedure, shortened: as §1

barnyard grass [5] = assay: Test Example 1: weedkilling efficacy, preemergent weed treatment in the submerged state; A: barnyard grass; settings: treatment dosage 320 g/ha
Procedure, shortened: as §2

common wind-grass = assay: Test Example 3: weedkilling efficacy through soil treatment; J: common wind-grass; settings: soil treatment, treatment dosage 320 g/ha
Procedure, shortened: as §1

Italian ryegrass = assay: Test Example 3: weedkilling efficacy through soil treatment; I: Italian ryegrass; settings: soil treatment, treatment dosage 320 g/ha
Procedure, shortened: as §1

Indian mallow = assay: Test Example 3: weedkilling efficacy through soil treatment; K: Indian mallow; settings: soil treatment, treatment dosage 320 g/ha
Procedure, shortened: as §1

birds-eye speedwell = assay: Test Example 3: weedkilling efficacy through soil treatment; p: birds-eye speedwell; settings: soil treatment, treatment dosage 320 g/ha
Procedure, shortened: as §1

corn = assay: Test Example 3: soil treatment, effect on crop; c: corn; settings: soil treatment, treatment dosage 320 g/ha
Procedure, shortened: as §1

beet = assay: Test Example 3: soil treatment, effect on crop; f: beet; settings: soil treatment, treatment dosage 320 g/ha
Procedure, shortened: as §1

barnyard grass [6] = assay: Test Example 2: weedkilling efficacy, growth period weed treatment in the submerged state; A: barnyard grass; settings: treatment dosage 320 g/ha
Procedure, shortened: as §3

crabgrass = assay: Test Example 3: weedkilling efficacy through soil treatment; D: crabgrass; settings: soil treatment, treatment dosage 320 g/ha
Procedure, shortened: as §1

redroot pigweed = assay: Test Example 3: weedkilling efficacy through soil treatment; L: redroot pigweed; settings: soil treatment, treatment dosage 320 g/ha
Procedure, shortened: as §1

oval-leafed pondweed [7] = assay: Test Example 2: weedkilling efficacy, growth period weed treatment in the submerged state; C: oval-leafed pondweed; settings: treatment dosage 320 g/ha
Procedure, shortened: as §3

transplanted rice = assay: Test Example 1: preemergent weed treatment in the submerged state, effect on crop; a: transplanted rice; settings: treatment dosage 320 g/ha
Procedure, shortened: as §2

rapeseed = assay: Test Example 3: soil treatment, effect on crop; g: rapeseed; settings: soil treatment, treatment dosage 320 g/ha
Procedure, shortened: as §1

chickweed = assay: Test Example 3: weedkilling efficacy through soil treatment; N: chickweed; settings: soil treatment, treatment dosage 320 g/ha
Procedure, shortened: as §1

catchweed = assay: Test Example 3: weedkilling efficacy through soil treatment; O: catchweed; settings: soil treatment, treatment dosage 320 g/ha
Procedure, shortened: as §1

black-grass = assay: Test Example 3: weedkilling efficacy through soil treatment; H: black-grass; settings: soil treatment, treatment dosage 320 g/ha
Procedure, shortened: as §1

wheat = assay: Test Example 3: soil treatment, effect on crop; e: wheat; settings: soil treatment, treatment dosage 320 g/ha
Procedure, shortened: as §1

wild oat = assay: Test Example 3: weedkilling efficacy through soil treatment; G: wild oat; settings: soil treatment, treatment dosage 320 g/ha
Procedure, shortened: as §1

fig-leafed goosefoot = assay: Test Example 3: weedkilling efficacy through soil treatment; M: fig-leafed goosefoot; settings: soil treatment, treatment dosage 320 g/ha
Procedure, shortened: as §1

SMILES: Cc1cc(F)nc(NC(=O)C(C)(C)N2COCN(c3ccccc3)C2=O)c1 [A-2-20]
- b: directly sown rice, effect on crop grade (directly sown rice): 5 (weed kill ratio 90% or more, (practically complete withering))
- B: bulrush, weed kill grade (bulrush [1]): 5 (weed kill ratio 90% or more, (practically complete withering))
- d: soybean, effect on crop grade (soybean): 3 (weed kill ratio 40% or more, less than 70%)
- C: oval-leafed pondweed, weed kill grade (oval-leafed pondweed [2]): 5 (weed kill ratio 90% or more, (practically complete withering))
- B (bulrush) weedkilling efficacy grade (bulrush [3]): 5 (weed kill ratio 90% or more, (practically complete withering))
- F: barnyard grass, weedkilling efficacy grade (barnyard grass [4]): 5 (weed kill ratio 90% or more, (practically complete withering))
- E: green foxtail, weedkilling efficacy grade (green foxtail): 5 (weed kill ratio 90% or more, (practically complete withering))
- A: barnyard grass, weed kill grade (barnyard grass [5]): 5 (weed kill ratio 90% or more, (practically complete withering))
- J: common wind-grass, weedkilling efficacy grade (common wind-grass): 5 (weed kill ratio 90% or more, (practically complete withering))
- I: Italian ryegrass, weedkilling efficacy grade (Italian ryegrass): 5 (weed kill ratio 90% or more, (practically complete withering))
- K: Indian mallow, weedkilling efficacy grade (Indian mallow): 4 (weed kill ratio 70% or more, less than 90%)
- P: birds-eye speedwell, weedkilling efficacy grade (birds-eye speedwell): 5 (weed kill ratio 90% or more, (practically complete withering))
- c: corn, effect on crop grade (corn): 1 (weed kill ratio 5% or more, less than 20%)
- f: beet, effect on crop grade (beet): 4 (weed kill ratio 70% or more, less than 90%)
- A (barnyard grass) weedkilling efficacy grade (barnyard grass [6]): 5 (weed kill ratio 90% or more, (practically complete withering))
- D: crabgrass, weedkilling efficacy grade (crabgrass): 5 (weed kill ratio 90% or more, (practically complete withering))
- L: redroot pigweed, weedkilling efficacy grade (redroot pigweed): 4 (weed kill ratio 70% or more, less than 90%)
- C (oval-leafed pondweed) weedkilling efficacy grade (oval-leafed pondweed [7]): 5 (weed kill ratio 90% or more, (practically complete withering))
- a: transplanted rice, effect on crop grade (transplanted rice): 3 (weed kill ratio 40% or more, less than 70%)
- g: rapeseed, effect on crop grade (rapeseed): 4 (weed kill ratio 70% or more, less than 90%)
- N: chickweed, weedkilling efficacy grade (chickweed): 4 (weed kill ratio 70% or more, less than 90%)
- O: catchweed, weedkilling efficacy grade (catchweed): 5 (weed kill ratio 90% or more, (practically complete withering))
- H: black-grass, weedkilling efficacy grade (black-grass): 5 (weed kill ratio 90% or more, (practically complete withering))
- e: wheat, effect on crop grade (wheat): 3 (weed kill ratio 40% or more, less than 70%)
- G: wild oat, weedkilling efficacy grade (wild oat): 5 (weed kill ratio 90% or more, (practically complete withering))
- M: fig-leafed goosefoot, weedkilling efficacy grade (fig-leafed goosefoot): 4 (weed kill ratio 70% or more, less than 90%)
